# Measured values as given in patent US12018327B2, “Methods and compositions relating to epoxide hydrolase genes” (The Regents of the University of California, priority 2018, dated 2024).
# Experiments:
# CRA-challenged mice = test: Cockroach antigen (CRA) airway sensitization and challenge model; format: in vivo; details: for frequency of lung resident alveolar macrophages (CD11c+CD11b+F4/80+Siglec-F+): compared to vehicle treated
# Description: Six-week-old female C57B6 mice were obtained from Jackson Laboratories (Sacramento, CA). Mice were treated on days 1, 2, 3, 14, and 21 with 30 mg kg^−1 12,13 DiHOME solubilized in 10% DMSO or vehicle (10% DMSO) by peritoneal injection. Three hours after injection, mice were challenged intra-tracheally with either PBS or CRA (20,000 PNU mL^−1; Greer, Lenoir, NC). Twenty-four hours after the final challenge mice were anesthetized, injected retro-orbitally with 100 μL CD45-APC (1:10), allowed to recover from anesthesia, and subsequently sacrificed. Lungs and plasma were collected. Serum was isolated, and serum IgE levels were measured using a Mouse IgE ELISA Max kit (Biolegend, San Diego, CA).
# Lungs were sent to the Mouse Pathology Core at UCSF for H&E staining of paraffin-embedded tissue sections. Two bronchioles and two vessels from each stained tissue section were scored on a 0-4 scale with 0, representing structures with no inflammatory infiltrates; 1, representing few inflammatory cells; 2, representing a ring 1 cell-layer wide; 3, representing a ring 2-4 cells wide; and 4, representing a ring of inflammatory cells more than 4 cells wide. Each structure was scored by two blinded-individuals, and scores were averaged for each animal. Cell counts were determined for each structure. In brief, the ImageJ freehand selection tool was used to trace the perimeter of each bronchiole and vessel. The area extending beyond the perimeter of the vessel was cleared, and the color threshold of the image was adjusted using the default method with the following parameters: hue=0-255, saturation=0-255, brightness=130-255, threshold color=white, background=dark, color space=HSB. The image was converted to an 8-bit grey scale, and the threshold was adjusted using the B&W defaults and a range of 0-150. Counts were outlined and summarized using the analyze particles window (size=0-infinity, circularity=0.0-1.00).
# Lung cell subsets were assessed by flow cytometry. Lung tissue was manually dissected, digested with 5 mg per sample collagenase (Sigma-Aldrich, St. Louis, MO), and passed through a […] filter to generate single cell suspensions. […] Gating strategy can be found in FIG. 5C. Regulatory T cells were identified as CD3+CD4+CD25+FoxP3+ cells. The human T cell gating strategy was also applied to mouse lungs. A representative flow plot can be found in FIG. 5D.
# Lung tissue was preserved in RNAlater (Ambion, Foster City, CA). Preserved lung tissue was homogenized in Lysing Matrix E Tubes using a FastPrep 24 Homogenizer (MP Biomedicals, Santa Ana, CA) and extracted using an RNAeasy Mini Kit (Qiagen, Germantown, MD). qPCR was performed on lung tissue, as described above, to evaluate expression of IL1α, IL1β, and TNF relative to GAPDH.
# autologous T cells = test: Co-culture of 12,13 DiHOME treated DCs with autologous T cells, T cell subsets by flow cytometry; format: cell-based, human
# Description: Co-culture of human DCs and T cells in the presence of 12,13 DiHOME was performed as previously described. In brief, DCs were isolated from the PBMCs of two healthy human donors and treated for five days with 130 μM 12,13 DiHOME solubilized in 0.2% DMSO or vehicle (0.2% DMSO) in the presence of 20 ng mL^−1 IL-4 (R&D Systems, Minneapolis, MN) and 10 ng mL^−1 GM-CSF (R&D Systems, Minneapolis, MN). Fresh treatment media was added every 48 hrs throughout the course of the study. Eighteen hours prior to co-culture, DCs were stimulated with 10 ng mL^−1 TNFα, IL1β, and IL-6 (Peprotech, Rocky Hill, NJ) and 1 mM prostaglandin E2 (Stemcell Technologies, Cambridge, MA). DCs were subsequently washed and co-cultured with autologous T cells in the presence of 10 ng mL^−1 anti-CD28 and anti-CD49d (BD Bioscience, San Jose, CA).
# After five days of co-culture, T cell subsets were analyzed by flow cytometry. To assess cytokine secretion, cells were stimulated for 16 hrs with Phorbol Myristate Acetate-Ionomycin (ACROS, Morris Planes, NJ) and GolgiPlug (Gplug; BD Biosciences, San Jose, CA). Flow cytometry data was collected on a BD LSR II flow cytometer. Helper T cell subsets were defined as follows: Th1 CD3+CD4+IFNγ+; Th2 CD3+CD4+IL-4+; Th17 CD3+CD4+IL-17+, Treg CD3+CD4+CD25+FoxP3+. The human T cell gating strategy can be found in FIG. 4D.
# [1] = 30 mg kg^−1 peritoneal, CRA-challenged, vs vehicle treated PBS or CRA challenged
# [2] = CRA challenged, vs vehicle treated PBS or CRA challenged
# [3] = CRA-challenged, vs vehicle treated PBS or CRA challenged
# [4] = H&E lung sections, 0-4 scale, vs vehicle treated PBS or CRA challenged
smiles,measurement,setting,value
"CCCCCC(O)C(O)C/C=C\CCCCCCCC(=O)O (stereo not shown) [12,13 DiHOME]",expression of IL1β in lung,CRA-challenged mice; [1],increased
same,frequency of lung resident T cells (CD3+),CRA-challenged mice; [1],increased
same,number of infiltrating cells surrounding the bronchioles,CRA-challenged mice; [1],increased
same,number of infiltrating cells surrounding the veins,CRA-challenged mice; [1],increased
same,lung Treg frequency,"CRA-challenged mice; 30 mg kg^−1 peritoneal, CRA-challenged, vs vehicle-treated CRA-challenged",decreased
same,serum IgE,"CRA-challenged mice; 30 mg kg^−1 peritoneal, vs CRA-challenged and PBS-challenged animals",increased
same,expression of IL1α in lung,CRA-challenged mice; [2],increased
same,expression of TNF in lung,CRA-challenged mice; [2],increased
same,frequency of live resident cells in the lungs,CRA-challenged mice; [3],did not increase
same,frequency of lung resident monocytes (F4-80+Ly6C+Ly6G-CD11b+),CRA-challenged mice; [3],significantly increased
same,frequency of lung resident neutrophils (Ly6G+CD11b+),CRA-challenged mice; [3],significantly increased
same,frequency of resident lung cells,CRA-challenged mice; [3],decreased
same,peribronchial inflammation score,CRA-challenged mice; [4],increased
same,perivascular inflammation score,CRA-challenged mice; [4],increased
same,frequency of lung resident alveolar macrophages (CD11c+CD11b+F4/80+Siglec-F+),CRA-challenged mice; CRA challenged animals,decreased
same,frequency of lung resident alveolar macrophages (CD11c+CD11b+F4/80+Siglec-F+),CRA-challenged mice; PBS challenged animals,increased
same,cell viability,autologous T cells; DC and T cell co-culture,without decreasing
same,distribution of helper T cells,autologous T cells; DCs treated with 130 μM,significant shift
same,frequency of Tregs (CD3+CD4+CD25+FoxP3+),autologous T cells; DCs treated with 130 μM,specific decrease
